According to PubChem BioAssay (NCI):
Where “and” joins values, the source holds several entries; their conditions need not be identical. Equal entries are not always repeated.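 Five compound concentrations were applied to cells in 96-well plates for 48 hours; endpoints were derived by simple linear interpolation of the resulting dose-response curve. The concentration for 50% growth inhibition is given as GI50. The concentration for full growth arrest is given as TGI.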

Legend:
Test in all cases: DTP human tumour cell line panel, 48 h
[1] = tested on: HT29 colon
[2] = tested on: NCI-H522 lung
[3] = tested on: ACHN renal
[4] = tested on: HCT-116 colon
[5] = tested on: K-562 leukemia
[6] = tested on: A549 NSCLC
[7] = tested on: NCI-H23 lung
[8] = tested on: NCI-H460 lung
[9] = tested on: EKVX NSCLC
[10] = tested on: NCI-H226 lung

Structure (SMILES) | TGI [1] [µM] | TGI [2] [µM] | TGI [3] [µM] | TGI [4] [µM] | TGI [5] | TGI [6] | TGI [7] [µM] | TGI [8] | TGI [9] [µM] | TGI [10] | GI50 [9] | GI50 [1] | GI50 [5] | GI50 [6] | GI50 [7] | GI50 [8] [µM] | GI50 [2] | GI50 [3] | GI50 [4] [µM] | GI50 [10] [µM]
COC1=NN2C(OC)(c3ccccc3)c3c(-c4ccccc4)sc(-c4ccccc4)c3C2(c2ccccc2)S1 (stereo unspecified) | > 100 | > 100 | > 100 | > 100 | > 100 µM | > 100 µM | > 100 | > 100 µM |  |  |  |  |  |  |  |  |  |  |  | 
CC1SC2=NC3=C(c4ccccc4C3=O)C(c3ccc(Br)cc3)N2C1=O (stereo unspecified) | > 100 | 48.3 | > 100 |  | > 100 µM | > 100 µM | > 100 | > 100 µM | > 100 | > 100 µM |  |  |  |  |  |  |  |  |  | 
CCOC(=O)c1c(-c2[nH]c(C(=O)OCc3ccccc3)c(C)c2C(=O)OCC)[nH]c(C(=O)OCc2ccccc2)c1C | > 100 | > 100 | > 100 | > 100 |  | > 100 µM |  | > 100 µM | > 100 | > 100 µM |  |  |  |  |  |  |  |  |  | 
CC[C@](O)(C(=O)O)c1cc2n(c(=O)c1CO)Cc1cc3ccccc3nc1-2 |  |  | 0.0211 | 0.622 | 12.9 µM and 88 µM | 2.6 µM and 1.48 µM and 0.42 µM |  | 0.0234 µM and 0.125 µM and 0.0345 µM |  | 0.866 µM and 0.332 µM and 1.62 µM | 0.283 µM and 0.63 µM | 0.0354 µM and 0.11 µM | 0.0383 µM and 0.137 µM and 0.0357 µM | 0.0057 µM and < 0.0178 µM | 0.0058 µM and 0.0215 µM | < 0.0025 |  |  |  | 
O=C1C[C@@H](c2ccccc2)NCCCCN(O)CCCN1 | > 100 | > 100 | > 100 | > 100 |  | > 100 µM | > 100 |  | > 100 | > 100 µM |  |  |  |  |  |  |  |  |  | 
CCOC(=O)Nc1nc2c(F)c(F)c(F)cc2s1 | > 100 | > 100 | > 100 | > 100 | > 100 µM | > 100 µM | > 100 | > 100 µM |  | > 100 µM |  | > 100 µM | > 100 µM | > 100 µM | 89 µM | 71.9 | 36.9 µM | > 100 µM | 58.6 | 46
Cc1cc2nc3ccc(N=Nc4ccc(N(C)C)cc4)cc3n(-c3ccccc3)c-2cc1=N | 1.15 |  |  | 0.116 |  | 0.264 µM | 0.418 | 0.0527 µM | 0.212 |  | 0.023 µM | 0.0497 µM | 0.00686 µM | 0.00894 µM | 0.0253 µM | 0.0146 | 0.0199 µM and 0.147 µM | 0.0233 µM and 0.21 µM | 0.0177 | 
O=C1Nc2ccccc2C12CC(c1ccccc1)=NN2 (stereo unspecified) | 27.5 | 76 | > 100 | > 100 | > 100 µM | > 100 µM | > 100 | > 100 µM |  | > 100 µM |  | 3.73 µM | 3.98 µM | 5.11 µM | 9.07 µM | 3.94 | 4.66 µM | 6.48 µM | 4.83 | 21.9
C(=C1\CCC/C(=C/c2ccccc2)C1=NNc1ccccc1)/c1ccccc1 | > 100 | > 100 | > 100 | > 100 | > 100 µM | > 100 µM | > 100 | > 100 µM | > 100 |  |  |  |  |  |  |  |  |  |  | 
OCCc1cnco1 | > 100 | > 100 |  | > 100 | > 100 µM | > 100 µM | > 100 | > 100 µM | > 100 | > 100 µM |  |  |  |  |  |  |  |  |  | 
COc1cc2c(c3oc(-c4ccc5c(c4)OCO5)c(O)c(=O)c13)CCC(C)(C)O2 | > 100 |  |  |  | > 100 µM | > 100 µM | > 100 |  | > 100 | > 100 µM |  |  |  |  |  |  |  |  |  | 
CN(C)c1nc(N(C)C)nc(N(C)CN(C)c2nc(N(C)C)nc(N(C)C)n2)n1 | > 100 | > 100 | > 100 | > 100 | > 100 µM | > 100 µM | > 100 | > 100 µM | > 100 |  |  |  |  |  |  |  |  |  |  | 
COC(=O)Nc1nc2c(OC)c(OC)c(OC)cc2[nH]1 | > 97.1 | 58.1 | > 100 | > 100 | > 100 µM | > 100 µM | > 100 | > 100 µM |  | > 100 µM |  | 4.63 µM | 5.43 µM | 14.8 µM | 39.1 µM | 14.6 | 13.3 µM | 81.9 µM | 10.1 | 61.4
COc1cc(C2c3cc4c(cc3C3OC(=O)C2C3CO)OCO4)cc(OC)c1OC (stereo unspecified) | > 100 | 0.0351 | > 100 | > 100 | > 100 µM | > 100 µM | > 100 | > 100 µM |  | > 100 µM |  | 0.012 µM | 0.0205 µM | 0.0294 µM | 0.0317 µM | 0.0299 | < 0.01 µM | 0.0344 µM | 0.0191 | 0.0616
Cc1cn(C2C=CC(=O)C(C)O2)c(=O)[nH]c1=O (stereo unspecified) | 33.4 | 32.4 | 31.3 | 24.6 | 36.9 µM | > 100 µM | 37.1 | 35.5 µM |  | 42.1 µM |  |  |  |  |  |  |  |  |  | 
CC(=O)OCCC/C(=C\c1ccc2ccccc2c1)[N+](=O)[O-] | 5.59 | 1.77 | 3.68 | 3.3 | > 100 µM | 31.2 µM | 4.65 | 8.62 µM |  | 4.16 µM |  | 2.3 µM | 2.01 µM | 3.41 µM | 1.79 µM | 2.91 | 0.353 µM | 1.89 µM | 1.61 | 1.76
N/C(=N\OC(=O)NC(Cl)=C(Cl)Cl)c1cc(C(F)(F)F)cc(C(F)(F)F)c1 | 34.4 |  | 27.4 | 35.5 |  | 30.4 µM | > 100 | 36.8 µM | 27 | 55.9 µM |  |  |  |  |  |  |  |  |  | 
O=C1C=C(N2CC2)c2ccccc2C1=O | 5.57 | 2.93 | 2.96 | 2.9 | 5.66 µM | 4.7 µM | 7.17 | 3.89 µM |  |  |  | 2.58 µM | 2.6 µM | 2.07 µM | 1.84 µM | 1.71 | 1.42 µM | 1.58 µM | 1.47 | 
